From ChEMBL document CHEMBL1201862, “PubChem BioAssay data set” (2004)
Calls of active or inactive are those of the source.

How the values were obtained:
[1] = molecular target: Eukaryotic translation initiation factor 4H (Homo sapiens, UniProt Q15056); assay: inhibitors of translation initiation factor eIF4H – SAR follow-up (AID 435011); format: functional
[2] = molecular target: Polyadenylate-binding protein 1 (Homo sapiens, UniProt P11940); assay: PABP inhibition in translation initiation, SAR follow-up (AID 435018); format: functional
Sequence of Polyadenylate-binding protein 1 (P11940 whole entry): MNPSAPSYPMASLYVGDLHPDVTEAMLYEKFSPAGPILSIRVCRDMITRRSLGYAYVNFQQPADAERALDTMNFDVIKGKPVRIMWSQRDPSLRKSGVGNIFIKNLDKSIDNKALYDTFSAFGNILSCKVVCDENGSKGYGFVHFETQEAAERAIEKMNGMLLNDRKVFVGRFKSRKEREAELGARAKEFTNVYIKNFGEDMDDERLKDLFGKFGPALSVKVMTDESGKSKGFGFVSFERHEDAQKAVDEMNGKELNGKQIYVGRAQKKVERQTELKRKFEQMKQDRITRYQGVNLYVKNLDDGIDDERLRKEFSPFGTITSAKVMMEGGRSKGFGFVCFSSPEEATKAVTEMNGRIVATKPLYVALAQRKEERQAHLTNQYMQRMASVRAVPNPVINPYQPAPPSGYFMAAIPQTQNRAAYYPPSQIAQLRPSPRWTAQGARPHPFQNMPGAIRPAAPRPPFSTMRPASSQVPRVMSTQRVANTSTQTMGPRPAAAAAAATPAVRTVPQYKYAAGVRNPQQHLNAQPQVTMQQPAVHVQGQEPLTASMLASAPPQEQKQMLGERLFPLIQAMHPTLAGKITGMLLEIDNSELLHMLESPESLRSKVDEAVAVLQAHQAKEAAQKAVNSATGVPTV

SUMO-activating enzyme = SUMO-activating enzyme (Homo sapiens, UniProt Q9UBT2); assay: blockers of UBC9-mediated SUMO conjugation – biochemical, AlphaScreen, SUMOylation inhibitor project, confirmation (AID 2018); format: functional
[3] = Luminescence Cell-Based Dose Retest to Confirm Inhibitors of Cancer Stem Cells. [Related pubchem assays (depositor defined):AID2717, AID2721]; format: functional; settings: Homo sapiens
[4] = molecular target: T1, Voltage-gated N-type calcium channel alpha-1B subunit/Amyloid beta A4 precursor protein-binding family A member 1 (Homo sapiens, UniProt Q00975+Q02410); assay: disruptors of Mint-PDZ/N-type channel peptide interaction – biochemical, HTRF, set 2, SAR follow-up (AID 434980); format: functional
T1 sequence (Q00975 whole entry): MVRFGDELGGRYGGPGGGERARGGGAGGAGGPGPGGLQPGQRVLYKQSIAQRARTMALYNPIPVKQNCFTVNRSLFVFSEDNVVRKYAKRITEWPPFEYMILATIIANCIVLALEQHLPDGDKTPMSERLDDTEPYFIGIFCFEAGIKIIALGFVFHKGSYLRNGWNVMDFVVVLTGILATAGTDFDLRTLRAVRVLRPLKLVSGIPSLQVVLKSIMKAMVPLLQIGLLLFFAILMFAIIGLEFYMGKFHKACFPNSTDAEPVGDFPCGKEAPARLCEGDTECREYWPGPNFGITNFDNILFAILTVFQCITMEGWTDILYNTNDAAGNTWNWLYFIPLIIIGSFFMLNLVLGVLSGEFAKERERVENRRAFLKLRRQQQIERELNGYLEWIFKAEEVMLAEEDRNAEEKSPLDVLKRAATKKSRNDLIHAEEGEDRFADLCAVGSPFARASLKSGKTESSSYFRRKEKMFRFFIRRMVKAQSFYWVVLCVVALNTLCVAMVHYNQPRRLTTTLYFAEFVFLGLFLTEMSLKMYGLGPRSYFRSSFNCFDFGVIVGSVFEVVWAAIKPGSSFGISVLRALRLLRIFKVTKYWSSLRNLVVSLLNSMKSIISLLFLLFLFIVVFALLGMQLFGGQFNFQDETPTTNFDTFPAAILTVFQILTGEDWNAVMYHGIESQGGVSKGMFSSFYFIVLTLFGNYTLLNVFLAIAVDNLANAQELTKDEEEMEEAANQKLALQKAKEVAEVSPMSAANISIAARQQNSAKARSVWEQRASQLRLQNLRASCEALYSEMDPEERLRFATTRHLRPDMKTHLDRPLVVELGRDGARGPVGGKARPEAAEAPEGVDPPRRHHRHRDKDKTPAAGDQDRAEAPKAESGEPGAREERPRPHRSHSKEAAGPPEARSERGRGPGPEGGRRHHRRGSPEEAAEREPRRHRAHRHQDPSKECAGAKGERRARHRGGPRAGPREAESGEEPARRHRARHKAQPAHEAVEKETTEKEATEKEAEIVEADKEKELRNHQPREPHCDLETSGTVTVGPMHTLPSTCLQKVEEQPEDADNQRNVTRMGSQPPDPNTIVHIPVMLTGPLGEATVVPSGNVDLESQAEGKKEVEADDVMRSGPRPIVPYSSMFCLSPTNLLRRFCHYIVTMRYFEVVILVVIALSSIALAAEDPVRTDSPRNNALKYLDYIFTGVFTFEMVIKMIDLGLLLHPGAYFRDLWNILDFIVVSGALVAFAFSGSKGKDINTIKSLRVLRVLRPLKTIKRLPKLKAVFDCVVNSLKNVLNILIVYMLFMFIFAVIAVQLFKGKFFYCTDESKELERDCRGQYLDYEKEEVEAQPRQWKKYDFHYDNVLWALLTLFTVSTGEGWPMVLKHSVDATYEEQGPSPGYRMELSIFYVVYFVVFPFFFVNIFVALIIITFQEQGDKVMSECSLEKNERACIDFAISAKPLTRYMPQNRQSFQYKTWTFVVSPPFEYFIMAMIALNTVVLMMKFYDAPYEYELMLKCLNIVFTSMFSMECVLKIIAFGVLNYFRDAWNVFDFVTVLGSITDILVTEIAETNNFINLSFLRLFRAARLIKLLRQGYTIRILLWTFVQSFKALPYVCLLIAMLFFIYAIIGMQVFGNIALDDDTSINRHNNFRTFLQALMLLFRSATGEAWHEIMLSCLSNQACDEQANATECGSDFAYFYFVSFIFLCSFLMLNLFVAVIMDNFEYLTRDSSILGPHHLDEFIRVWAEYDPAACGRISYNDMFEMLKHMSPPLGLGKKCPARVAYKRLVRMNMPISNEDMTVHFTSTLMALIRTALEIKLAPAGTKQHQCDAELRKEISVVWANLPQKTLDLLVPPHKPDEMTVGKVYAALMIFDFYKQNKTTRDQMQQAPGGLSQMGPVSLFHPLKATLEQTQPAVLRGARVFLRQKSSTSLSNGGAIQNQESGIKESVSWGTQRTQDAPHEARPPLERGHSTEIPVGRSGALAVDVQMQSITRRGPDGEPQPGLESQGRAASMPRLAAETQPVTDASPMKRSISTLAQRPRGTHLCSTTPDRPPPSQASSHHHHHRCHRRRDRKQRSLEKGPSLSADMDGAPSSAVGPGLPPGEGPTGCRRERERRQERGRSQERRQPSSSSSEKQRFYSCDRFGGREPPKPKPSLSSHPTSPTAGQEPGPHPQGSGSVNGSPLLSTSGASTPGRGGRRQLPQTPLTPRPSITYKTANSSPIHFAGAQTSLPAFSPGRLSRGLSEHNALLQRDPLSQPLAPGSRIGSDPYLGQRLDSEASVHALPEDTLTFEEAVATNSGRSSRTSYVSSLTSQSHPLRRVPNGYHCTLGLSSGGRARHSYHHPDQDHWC
T1 sequence (Q02410 whole entry): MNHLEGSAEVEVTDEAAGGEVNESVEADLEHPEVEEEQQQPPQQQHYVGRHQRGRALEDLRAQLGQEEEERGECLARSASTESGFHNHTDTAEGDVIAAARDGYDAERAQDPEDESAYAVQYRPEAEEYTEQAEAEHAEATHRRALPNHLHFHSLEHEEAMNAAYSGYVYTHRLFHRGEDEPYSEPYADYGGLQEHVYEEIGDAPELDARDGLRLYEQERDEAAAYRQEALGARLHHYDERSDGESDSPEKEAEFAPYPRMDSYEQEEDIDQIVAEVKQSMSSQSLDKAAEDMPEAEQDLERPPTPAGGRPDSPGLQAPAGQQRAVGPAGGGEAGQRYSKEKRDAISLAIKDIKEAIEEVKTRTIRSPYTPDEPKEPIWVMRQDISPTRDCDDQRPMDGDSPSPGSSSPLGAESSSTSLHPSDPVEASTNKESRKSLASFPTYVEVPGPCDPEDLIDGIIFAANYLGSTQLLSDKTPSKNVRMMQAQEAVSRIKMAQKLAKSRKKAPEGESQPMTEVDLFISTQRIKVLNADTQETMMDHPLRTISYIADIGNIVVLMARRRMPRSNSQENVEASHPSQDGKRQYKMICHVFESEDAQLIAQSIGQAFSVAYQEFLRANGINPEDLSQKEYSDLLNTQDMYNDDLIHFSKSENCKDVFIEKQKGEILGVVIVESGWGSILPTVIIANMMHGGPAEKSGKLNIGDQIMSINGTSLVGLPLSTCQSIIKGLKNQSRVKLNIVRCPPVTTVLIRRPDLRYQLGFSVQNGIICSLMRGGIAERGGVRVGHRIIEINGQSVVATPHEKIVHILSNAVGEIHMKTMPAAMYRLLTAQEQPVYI

[5] = molecular target: T1, Voltage-gated N-type calcium channel alpha-1B subunit/Amyloid beta A4 precursor protein-binding family A member 1; assay: disruptors of Mint-PDZ/N-type channel peptide interaction – biochemical, HTRF, SAR follow-up (AID 2489); format: functional
[6] = Luminescence Cell-Based Dose Response HTS to Identify Activators of Luciferase Translation or Activity in H4 […] Cells. [Related pubchem assays: 1829 (Project Summary), 1814 (Primary HTS)]; format: functional
Aspartyl aminopeptidase = molecular target: T2, Aspartyl aminopeptidase (Plasmodium falciparum 3D7, UniProt Q8I2J3)
T2 sequence (Q8I2J3 whole entry): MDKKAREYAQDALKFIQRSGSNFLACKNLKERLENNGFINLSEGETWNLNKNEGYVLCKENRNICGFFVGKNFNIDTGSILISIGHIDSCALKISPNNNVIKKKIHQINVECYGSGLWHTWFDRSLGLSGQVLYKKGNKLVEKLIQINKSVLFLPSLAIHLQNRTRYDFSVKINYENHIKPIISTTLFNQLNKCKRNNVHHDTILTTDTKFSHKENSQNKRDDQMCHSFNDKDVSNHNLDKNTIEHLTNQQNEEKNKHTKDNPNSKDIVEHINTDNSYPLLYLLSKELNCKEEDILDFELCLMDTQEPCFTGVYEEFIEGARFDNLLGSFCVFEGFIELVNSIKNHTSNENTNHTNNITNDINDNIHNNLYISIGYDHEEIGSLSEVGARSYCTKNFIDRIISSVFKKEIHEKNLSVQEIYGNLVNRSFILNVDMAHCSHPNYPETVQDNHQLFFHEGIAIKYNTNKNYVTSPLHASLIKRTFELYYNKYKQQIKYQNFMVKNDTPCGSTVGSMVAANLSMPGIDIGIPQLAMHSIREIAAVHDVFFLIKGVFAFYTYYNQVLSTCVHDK

Procathepsin L = Procathepsin L (Homo sapiens, UniProt P07711)
Sequence of Procathepsin L (P07711 whole entry): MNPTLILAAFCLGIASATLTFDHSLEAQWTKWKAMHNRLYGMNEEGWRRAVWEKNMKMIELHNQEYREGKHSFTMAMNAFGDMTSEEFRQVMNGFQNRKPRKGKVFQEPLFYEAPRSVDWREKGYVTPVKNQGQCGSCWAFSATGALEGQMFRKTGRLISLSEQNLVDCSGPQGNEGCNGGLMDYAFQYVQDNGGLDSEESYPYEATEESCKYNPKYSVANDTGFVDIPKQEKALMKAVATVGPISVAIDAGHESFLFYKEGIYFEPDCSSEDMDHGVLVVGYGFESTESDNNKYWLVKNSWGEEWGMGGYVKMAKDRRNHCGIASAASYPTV

H4 = assay: Luminescence Cell-Based Dose Response HTS to Identify Activators of 5'UTR Stem-Loop Driven Prion Protein mRNA Translation in H4 Neuroglioblastoma Cells. [Related pubchem assays: 1829 (Project Summary), 1814 (Primary HTS)]; format: functional; settings: Homo sapiens
[7] = molecular target: T3, Short transient receptor potential channel 4 (Mus musculus, UniProt Q9QUQ5); assay: block of DAMGO-driven TRPC4 calcium entry – cell-based, HEK293 TRPC4/mu-opioid, Fluo-4 calcium, dose response (AID 434942); format: functional;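 also: potency of inhibitors blocking the TRPC4 calcium response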
T3 sequence (Q9QUQ5 whole entry): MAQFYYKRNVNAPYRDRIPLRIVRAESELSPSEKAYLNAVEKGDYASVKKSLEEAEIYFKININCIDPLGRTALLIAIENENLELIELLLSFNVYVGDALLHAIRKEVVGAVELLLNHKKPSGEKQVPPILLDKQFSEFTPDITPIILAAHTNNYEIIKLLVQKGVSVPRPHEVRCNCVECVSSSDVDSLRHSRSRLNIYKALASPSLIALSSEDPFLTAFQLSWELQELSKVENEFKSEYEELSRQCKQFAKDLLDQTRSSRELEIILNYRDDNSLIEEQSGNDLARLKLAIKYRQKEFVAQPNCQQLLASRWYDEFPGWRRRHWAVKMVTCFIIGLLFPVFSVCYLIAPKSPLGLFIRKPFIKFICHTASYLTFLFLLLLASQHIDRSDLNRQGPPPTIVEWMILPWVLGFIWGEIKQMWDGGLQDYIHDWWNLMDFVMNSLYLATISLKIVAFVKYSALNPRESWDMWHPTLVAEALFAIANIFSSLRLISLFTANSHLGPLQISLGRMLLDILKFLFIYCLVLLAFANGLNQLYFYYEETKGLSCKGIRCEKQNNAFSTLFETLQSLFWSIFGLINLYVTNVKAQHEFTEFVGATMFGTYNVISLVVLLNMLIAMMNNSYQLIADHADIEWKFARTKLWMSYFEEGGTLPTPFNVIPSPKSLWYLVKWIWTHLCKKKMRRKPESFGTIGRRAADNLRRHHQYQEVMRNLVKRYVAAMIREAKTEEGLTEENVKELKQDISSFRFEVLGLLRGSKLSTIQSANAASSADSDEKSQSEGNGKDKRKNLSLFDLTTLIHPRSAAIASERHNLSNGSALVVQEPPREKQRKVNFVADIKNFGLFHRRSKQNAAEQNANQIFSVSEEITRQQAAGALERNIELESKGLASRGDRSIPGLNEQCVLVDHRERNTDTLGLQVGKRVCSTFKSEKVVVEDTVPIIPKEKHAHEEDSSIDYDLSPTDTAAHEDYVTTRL

[8] = molecular target: Dual specificity tyrosine-phosphorylation-regulated kinase 1A (Rattus norvegicus, UniProt Q63470); format: biochemical, Homo sapiens
[9] = molecular target: T4, Kappa-type opioid receptor (Homo sapiens, UniProt P41145); format: functional
T4 sequence (P41145 whole entry): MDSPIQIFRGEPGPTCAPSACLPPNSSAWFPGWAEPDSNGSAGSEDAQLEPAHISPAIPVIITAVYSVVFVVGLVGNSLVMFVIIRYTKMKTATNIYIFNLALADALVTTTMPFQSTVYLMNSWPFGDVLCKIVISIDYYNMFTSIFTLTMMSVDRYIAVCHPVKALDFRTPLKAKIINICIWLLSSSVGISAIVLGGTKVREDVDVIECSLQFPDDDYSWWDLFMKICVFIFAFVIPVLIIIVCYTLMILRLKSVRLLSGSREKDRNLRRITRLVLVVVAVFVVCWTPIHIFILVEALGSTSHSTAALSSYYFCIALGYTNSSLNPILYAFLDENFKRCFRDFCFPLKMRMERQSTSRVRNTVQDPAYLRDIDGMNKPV

Beta-galactosidase = Beta-galactosidase (Escherichia coli, UniProt Q8VNN2); format: functional
[10] = molecular target: T4, Kappa-type opioid receptor; format: functional; remark: listed apart in the source
Nonstructural protein 1 = Nonstructural protein 1 (Influenza A virus, UniProt Q194T2); format: functional, Influenza A virus (A/California/07/2009(H1N1))
[11] = molecular target: Heat shock protein HSP 90-alpha (Homo sapiens, UniProt P07900); format: functional, organism-based
BJ = assay: growth inhibition of engineered Ras-driven BJ cells – cell-based, alamar blue fluorescence, cherrypicked samples, dose response (AID 2631); format: functional; settings: Homo sapiens;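 also: confirmatory dose-response assay in RAS-dependent BJ fibroblasts engineered with TERT, LT and ST, with cytotoxicity read by fluorescence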
[12] = A cytotoxicity screen of small molecule inhibitors of the PhoP region in Salmonella typhi identified in the primary screen. [Related pubchem assays: 1850, 1864, 1985 ]; format: functional
HEK293 [13] = assay: inhibition of NOD1-driven NF-kB reporter – cell-based, luminescence, uHTS, primary screen (AID 1578); format: functional; settings: Homo sapiens
HEK293 [14] = assay: cells; format: functional, cell-based; settings: Homo sapiens
HEK293 [15] = assay: cells; format: functional, cell-based; settings: Homo sapiens; remark: listed apart in the source
HEK293 [16] = assay: NOD2 signaling inhibitors in MDP-stimulated cells, cell-based, uHTS, luminescence (AID 2001); format: functional; settings: Homo sapiens
Tumor necrosis factor = Tumor necrosis factor (Homo sapiens, UniProt P01375); assay: analog potency on TNFa NF-kB signaling – cell-based, revised, SAR follow-up (AID 2337); format: functional
Sequence of Tumor necrosis factor (P01375 whole entry, the tested form may be a part): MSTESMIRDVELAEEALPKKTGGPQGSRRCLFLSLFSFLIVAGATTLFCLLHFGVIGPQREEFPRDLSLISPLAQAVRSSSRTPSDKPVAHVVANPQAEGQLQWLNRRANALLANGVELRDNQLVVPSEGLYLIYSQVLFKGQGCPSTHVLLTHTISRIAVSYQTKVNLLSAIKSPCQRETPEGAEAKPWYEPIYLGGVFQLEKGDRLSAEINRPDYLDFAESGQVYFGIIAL

[17] = molecular target: T5, Nucleotide-binding oligomerization domain-containing protein 1 (Homo sapiens, UniProt Q9Y239); assay: blockers of NOD1 pathway activity – revised, SAR follow-up (AID 2333); format: functional
T5 sequence (Q9Y239 whole entry): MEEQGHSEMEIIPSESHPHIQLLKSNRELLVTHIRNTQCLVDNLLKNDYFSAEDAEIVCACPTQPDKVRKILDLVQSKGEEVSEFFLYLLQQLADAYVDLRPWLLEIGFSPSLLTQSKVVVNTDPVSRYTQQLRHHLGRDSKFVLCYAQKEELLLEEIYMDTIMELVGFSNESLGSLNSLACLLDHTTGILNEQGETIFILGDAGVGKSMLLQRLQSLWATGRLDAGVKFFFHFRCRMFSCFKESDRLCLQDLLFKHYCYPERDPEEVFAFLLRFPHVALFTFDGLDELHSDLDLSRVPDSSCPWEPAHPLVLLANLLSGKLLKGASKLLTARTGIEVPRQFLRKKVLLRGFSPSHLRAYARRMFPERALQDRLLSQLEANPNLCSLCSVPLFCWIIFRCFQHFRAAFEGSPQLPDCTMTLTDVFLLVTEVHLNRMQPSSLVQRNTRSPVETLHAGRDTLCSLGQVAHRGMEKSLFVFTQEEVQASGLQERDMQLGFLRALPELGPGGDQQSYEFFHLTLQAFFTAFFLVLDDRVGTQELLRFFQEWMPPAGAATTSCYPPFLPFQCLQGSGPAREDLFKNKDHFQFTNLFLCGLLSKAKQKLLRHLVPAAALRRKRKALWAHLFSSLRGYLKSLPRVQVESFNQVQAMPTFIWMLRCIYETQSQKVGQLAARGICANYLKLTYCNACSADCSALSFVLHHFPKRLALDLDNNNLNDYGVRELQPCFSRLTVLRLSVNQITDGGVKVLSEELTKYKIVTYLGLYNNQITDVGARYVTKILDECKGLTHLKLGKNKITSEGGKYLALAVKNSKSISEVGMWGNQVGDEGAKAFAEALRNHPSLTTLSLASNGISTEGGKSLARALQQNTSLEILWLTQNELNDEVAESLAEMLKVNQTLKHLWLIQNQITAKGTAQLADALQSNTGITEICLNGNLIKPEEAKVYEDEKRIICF

HEK293 [18] = assay: cells; settings: Homo sapiens
cells [19] = format: functional, cell-based
[20] = molecular target: Nucleotide-binding oligomerization domain-containing protein 2 (Homo sapiens, UniProt Q9HC29); assay: inhibition of NOD2-driven NF-kB reporter – cell-based, luminescence, uHTS, HEK293 (AID 1566); format: functional
HEK293 [21] = assay: cells; format: functional, cell-based; settings: Homo sapiens; remark: listed apart in the source
cells [22] = format: functional, cell-based; remark: listed apart in the source
INS1 = assay: INS-1E survival protection against cytokine death – cell-based, luminescence, retest, dose response (AID 449756); format: functional; settings: Rattus norvegicus;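 also: cell death triggered by IL-1 beta plus TNF-alpha plus IFN-gamma mixture; protective hits raise ATP signal compared with cytokine alone wells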
Protein skinhead-1 = molecular target: T6, Protein skinhead-1 (Caenorhabditis elegans, UniProt P34707); format: functional
T6 sequence (P34707 whole entry): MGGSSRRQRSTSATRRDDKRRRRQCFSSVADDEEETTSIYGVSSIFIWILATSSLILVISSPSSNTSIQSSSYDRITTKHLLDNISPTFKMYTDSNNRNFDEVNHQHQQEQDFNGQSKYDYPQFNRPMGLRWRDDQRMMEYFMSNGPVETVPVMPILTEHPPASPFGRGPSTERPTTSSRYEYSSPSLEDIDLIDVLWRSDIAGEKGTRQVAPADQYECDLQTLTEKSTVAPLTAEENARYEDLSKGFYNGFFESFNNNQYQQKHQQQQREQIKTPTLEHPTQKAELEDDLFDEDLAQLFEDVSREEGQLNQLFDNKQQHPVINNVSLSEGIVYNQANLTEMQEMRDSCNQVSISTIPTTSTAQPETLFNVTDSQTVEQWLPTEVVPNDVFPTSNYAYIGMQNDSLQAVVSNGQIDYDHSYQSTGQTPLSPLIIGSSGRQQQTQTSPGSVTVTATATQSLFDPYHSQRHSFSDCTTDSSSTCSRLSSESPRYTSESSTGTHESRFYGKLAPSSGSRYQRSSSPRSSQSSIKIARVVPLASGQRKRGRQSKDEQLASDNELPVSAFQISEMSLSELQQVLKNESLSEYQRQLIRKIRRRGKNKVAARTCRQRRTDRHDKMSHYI

O=C(Nc1ccc(Cl)cc1)C1CCN(C(=O)c2cccs2)CC1
IC50 [1]: > 100 µM (inactive)
IC50 [2]: > 100 µM (inactive)

CCc1ccc(NC(=O)C(CC)Sc2nc3cc4c(cc3c(=O)n2Cc2ccco2)OCO4)cc1 (configuration not stated)
IC50 (SUMO-activating enzyme): 48.9 µM (active)
AC50 [3]: 8.32 µM (active)

CC12C=CC(C)(O1)C1C(=O)N(c3ccc(F)cc3)C(=O)C12 (configuration not stated)
IC50 [4]: 8.89 µM (active)
IC50 [5]: 10.7 µM (active)

Oc1ccc(-c2csc(-c3ccccc3)n2)cc1O
EC50 [6]: > 120 µM (not active)
IC50 (Aspartyl aminopeptidase): 2.78 µM (active)
IC50 (Procathepsin L): > 59.6 µM (not active)
EC50 (H4): 6.54 µM (active)
EC50 [7]: 4.73 µM (active)
AC50 [8]: 6.72 µM (active)

C/C(=N\Nc1ncc(Cl)cc1Cl)c1ccccn1
IC50 [9]: 3.47 µM (active)
EC50 (Beta-galactosidase): > 31.5 µM (inactive)
IC50 [10]: > 32 µM
IC50 (Nonstructural protein 1): 12 µM (active)
AC50 [11]: 1.84 µM (active)
EC50 (BJ): 0.0209 µM (active)

CCCCOc1ccc(-c2nnn(CC(=O)Nc3ncc(CC(=O)OCC)s3)n2)cc1
EC50 [12]: > 50 µM (active)

O=C(NCc1cccs1)C(=O)NCC(c1ccco1)N1CCN(c2ccc(F)cc2)CC1 (configuration not stated)
EC50 [12]: > 50 µM (active)

COc1ccccc1NC(=O)COC(=O)c1ccc(NC(N)=O)cc1
IC50 [1]: 17.9 µM (active)
IC50 [2]: 69.4 µM (active)

Cc1oc(-c2cc(F)ccc2F)nc1CN1CCN(c2ncnc3ccccc23)CC1
EC50 (HEK293 [13]): 4.42 µM (active)
IC50 (HEK293 [14]): 11.1 µM (active)
IC50 (HEK293 [15]): 19.9 µM (active)
IC50 (HEK293 [16]): 8.53 µM (active)
IC50 (Tumor necrosis factor): 5.97 µM (active)
IC50 [17]: 6.29 µM (active)
IC50 (HEK293 [18]): > 20 µM (inactive)

CN(Cc1cccnc1)C(=O)c1cc(COc2ccc3ncccc3c2)on1
EC50 (HEK293 [13]): 3.64 µM (active)
IC50 (HEK293 [14]): 6.23 µM (active)
EC50 (cells [19]): > 350 µM (not active)
IC50 (HEK293 [15]): 17.3 µM (active)
EC50 [20]: 9.78 µM (active)
IC50 (HEK293 [16]): 8.18 µM (active)
IC50 (HEK293 [21]): > 20 µM (inactive)
EC50 (cells [22]): > 350 µM (not active)
IC50 (Tumor necrosis factor): 5.24 µM (active)
IC50 [17]: 2.92 µM (active)
AC50 (INS1): 3.92 µM (active)
IC50 (HEK293 [18]): > 20 µM (inactive)

COc1ccccc1CCNC(=O)CSc1ccc(-c2ccco2)nn1
IC50 [1]: > 100 µM (inactive)
IC50 [2]: > 100 µM (inactive)

CC(=O)NS(=O)(=O)c1ccc(Nc2ccc([N+](=O)[O-])c3nonc23)cc1
IC50 [9]: 13.9 µM (active)
EC50 (Beta-galactosidase): 18.1 µM (active)
IC50 [10]: > 32 µM
IC50 (Protein skinhead-1): 34.7 µM (active)
